Laboratory results as given in US20250255867A1 (Kadmon Corporation, LLC, priority 2022, published 2025).

Conditions: Cohort 3 400 mg QD

CC(C)NC(=O)COc1cccc(-c2nc(Nc3ccc4[nH]ncc4c3)c3ccccc3n2)c1 [Belumosudil, 2-{3-[4-(1H-indazol-5-ylamino)-2-quinazolinyl]phenoxy}-N-(propan-2-yl) acetamide]
0: Blood loss anaemia: # Events | Bronchial secretion retention: # Events | Bronchoscopy: # Events | Catheter site haemorrhage: # Events | Chills: # Events | Chronic kidney disease: # Events | Contrast media allergy: # Events | Corneal abrasion: # Events | Corneal infection: # Events | Drug eruption: # Events | Dyspnoea exertional: # Events | Enamel anomaly: # Events | Epidural lipomatosis: # Events | Epstein-Barr virus infection: # Events | Erectile dysfunction: # Events | Eye irritation: # Events | Eye pain: # Events | Eye pruritus: # Events | Flushing: # Events | Fungal infection: # Events | Gamma-glutamyltransferase increased: # Events | Gastric ulcer: # Events | Genital infection fungal: # Events | Glaucoma: # Events
3: Conjunctivitis: # Events | Depression: # Events | Dysphagia: # Events
9: Cough: # Events
(47.62%): Fatigue: Affected/At Risk (%)
6/21: Dyspnoea: Affected/At Risk
14: Fatigue: # Events
(0%): Blood loss anaemia: Affected/At Risk (%) | Bronchial secretion retention: Affected/At Risk (%) | Bronchoscopy: Affected/At Risk (%) | Catheter site haemorrhage: Affected/At Risk (%) | Chills: Affected/At Risk (%) | Chronic kidney disease: Affected/At Risk (%) | Contrast media allergy: Affected/At Risk (%) | Corneal abrasion: Affected/At Risk (%) | Corneal infection: Affected/At Risk (%) | Drug eruption: Affected/At Risk (%) | Dyspnoea exertional: Affected/At Risk (%) | Enamel anomaly: Affected/At Risk (%) | Epidural lipomatosis: Affected/At Risk (%) | Epstein-Barr virus infection: Affected/At Risk (%) | Erectile dysfunction: Affected/At Risk (%) | Eye irritation: Affected/At Risk (%) | Eye pain: Affected/At Risk (%) | Eye pruritus: Affected/At Risk (%) | Flushing: Affected/At Risk (%) | Fungal infection: Affected/At Risk (%) | Gamma-glutamyltransferase increased: Affected/At Risk (%) | Gastric ulcer: Affected/At Risk (%) | Genital infection fungal: Affected/At Risk (%)
2/21: Dehydration: Affected/At Risk | Dizziness: Affected/At Risk | Dry eye: Affected/At Risk | Dysphagia: Affected/At Risk | Gastrooesophageal reflux disease: Affected/At Risk
10/21: Fatigue: Affected/At Risk
3/21: Conjunctivitis: Affected/At Risk | Constipation: Affected/At Risk | Contusion: Affected/At Risk | Depression: Affected/At Risk
(19.05%): Decreased appetite: Affected/At Risk (%)
(28.57%): Dyspnoea: Affected/At Risk (%)
(33.33%): Cough: Affected/At Risk (%) | Diarrhoea: Affected/At Risk (%)
1: Bronchitis: # Events | Conjunctival haemorrhage: # Events | Dry skin: # Events | Dyspepsia: # Events | Embolism: # Events | Fall: # Events | Flatulence: # Events | Generalised oedema: # Events
4/21: Decreased appetite: Affected/At Risk
(14.29%): Conjunctivitis: Affected/At Risk (%) | Constipation: Affected/At Risk (%) | Contusion: Affected/At Risk (%) | Depression: Affected/At Risk (%)
(4.76%): Bronchitis: Affected/At Risk (%) | Conjunctival haemorrhage: Affected/At Risk (%) | Dry skin: Affected/At Risk (%) | Dyspepsia: Affected/At Risk (%) | Embolism: Affected/At Risk (%) | Fall: Affected/At Risk (%) | Flatulence: Affected/At Risk (%) | Generalised oedema: Affected/At Risk (%)
7/21: Cough: Affected/At Risk | Diarrhoea: Affected/At Risk
2: Dehydration: # Events | Dizziness: # Events | Dry eye: # Events | Gastrooesophageal reflux disease: # Events
11: Diarrhoea: # Events
4: Constipation: # Events | Contusion: # Events | Decreased appetite: # Events
6: Dyspnoea: # Events
(9.52%): Dehydration: Affected/At Risk (%) | Dizziness: Affected/At Risk (%) | Dry eye: Affected/At Risk (%) | Dysphagia: Affected/At Risk (%) | Gastrooesophageal reflux disease: Affected/At Risk (%)
1/21: Bronchitis: Affected/At Risk | Conjunctival haemorrhage: Affected/At Risk | Dry skin: Affected/At Risk | Dyspepsia: Affected/At Risk | Embolism: Affected/At Risk | Fall: Affected/At Risk | Flatulence: Affected/At Risk | Generalised oedema: Affected/At Risk
0/21: Blood loss anaemia: Affected/At Risk | Bronchial secretion retention: Affected/At Risk | Bronchoscopy: Affected/At Risk | Catheter site haemorrhage: Affected/At Risk | Chills: Affected/At Risk | Chronic kidney disease: Affected/At Risk | Contrast media allergy: Affected/At Risk | Corneal abrasion: Affected/At Risk | Corneal infection: Affected/At Risk | Drug eruption: Affected/At Risk | Dyspnoea exertional: Affected/At Risk | Enamel anomaly: Affected/At Risk | Epidural lipomatosis: Affected/At Risk | Epstein-Barr virus infection: Affected/At Risk | Erectile dysfunction: Affected/At Risk | Eye irritation: Affected/At Risk | Eye pain: Affected/At Risk | Eye pruritus: Affected/At Risk | Flushing: Affected/At Risk | Fungal infection: Affected/At Risk | Gamma-glutamyltransferase increased: Affected/At Risk | Gastric ulcer: Affected/At Risk | Genital infection fungal: Affected/At Risk | Glaucoma: Affected/At Risk
